# Laboratory results reported in patent US7153851B2, “10-(3-cyclopropylaminomethyl-1-pyrrolidinyl)pyridobenzoxazinecarboxylic acid derivative effective against resistant bacterium” (Kyorin Pharmaceutical Co., Ltd., priority 2002, dated 2006).
# Assays:
# Experiment in all cases: In vitro antibacterial activity (MIC), agar dilution method according to NCCLS
# Type in all cases: cell-based
# [1] = system: S. aureus MS16401 (quinolone-resistant S. aureus); settings: Muller-Hinton agar medium
# Procedure: (§1) The in vitro antibacterial activity (as measured by the minimum inhibitory concentration (MIC)) was determined for each of the compounds of the present invention by the agar dilution method according to NCCLS (National Committee for Clinical Laboratory Standard (1997), Methods for Dilution Antibacterial Susceptibility Tests for Bacteria that grow Aerobically-Forth Edition: Approved Standard m7-A4. NCCLS, Villanova, Pa.), which involved the use of Muller-Hinton agar medium.
# [2] = system: S. aureus Smith; settings: Muller-Hinton agar medium
# Procedure: as §1
# [3] = system: S. aureus MR5867 (methicillin-resistant S. aureus); settings: Muller-Hinton agar medium
# Procedure: as §1
# [4] = system: E. faecalis IID682; design: unit not given here; settings: Muller-Hinton agar medium containing 5% defibrinated equine blood
# [5] = system: S. pneumoniae Type III; settings: Muller-Hinton agar medium containing 5% defibrinated equine blood
Structure (SMILES),MIC [1] [µg/mL],MIC [2],MIC [3],MIC [4],MIC [5]
"COC[C@H]1COc2c(N3CC[C@@H](CNC4CC4)C3)c(F)cc3c(=O)c(C(=O)O)cn1c23 [Example 4, (3S)-10-[(3S)-3-cyclopropylaminomethyl-1-pyrrolidinyl]-9-fluoro-2,3-dihydro-3-methoxymethyl-1-oxo-7H-pyrido[1,2,3-d,e][1,4]benzoxazine-6-carboxylic acid]",500,0.031,0.031,0.25,0.125
"C[C@H]1COc2c(N3C[C@@H](CNC4CC4)[C@H](C(F)(F)F)C3)c(F)cc3c(=O)c(C(=O)O)cn1c23 (relative stereo) [Example 19, (3S)-10-(trans-3-cyclopropylaminomethyl-4-trifluoromethyl-1-pyrrolidinyl)-9-fluoro-2,3-dihydro-3-methyl-7-oxo-7H-pyrido[1,2,3-d,e][1,4]benzoxazine-6-carboxylic acid]",125,0.016,0.016,0.25,0.125
"C[C@H]1CN(c2c(F)cc3c(=O)c(C(=O)O)cn4c3c2OC[C@@H]4CF)C[C@@H]1CNC1CC1 [Example 17, (3R)-10-[(3S,4R)-3-cyclopropylaminomethyl-4-methyl-1-pyrrolidinyl]-9-fluoro-3-fluoromethyl-2,3-dihydro-7-oxo-7H-pyrido[1,2,3-d,e][1,4]benzoxazine-6-carboxylic acid]",63,0.008,0.008,0.063,0.016
"C[C@@H]1CN(c2c(F)cc3c(=O)c(C(=O)O)cn4c3c2OC[C@@H]4C)C[C@H]1CNC1CC1 (relative stereo) [Example 10, (3S)-10-(trans-3-cyclopropylaminomethyl-4-methyl-1-pyrrolidinyl)-9-fluoro-2,3-dihydro-3-methyl-7-oxo-7H-pyrido[1,2,3-d,e][1,4]benzoxazine-6-carboxylic acid]",63,0.016,0.016,0.125,0.031
"O=C(O)c1cn2c3c(c(N4CC[C@@H](CNC5CC5)C4)c(F)cc3c1=O)OC[C@@H]2CO [Example 6, (3S)-10-[(3S)-3-cyclopropylaminomethyl-1-pyrrolidinyl]-9-fluoro-2,3-dihydro-3-hydroxymethyl-7-oxo-7H-pyrido[1,2,3-d,e][1,4]benzoxazine-6-carboxylic acid]",4000,0.25,0.25,0.25,0.125
"C[C@@H]1CN(c2c(F)cc3c(=O)c(C(=O)O)cn4c3c2OC[C@@H]4CF)C[C@H]1CNC1CC1 (relative stereo) [Example 16, (3R)-10-(trans-3-cyclopropylaminomethyl-4-methyl-1-pyrrolidinyl)-9-fluoro-3-fluoromethyl-2,3-dihydro-7-oxo-7H-pyrido[1,2,3-d,e][1,4]benzoxazine-6-carboxylic acid]",63,0.016,0.016,0.063,0.032
"C[C@H]1CN(c2c(F)cc3c(=O)c(C(=O)O)cn4c3c2OC[C@@H]4C)C[C@H]1CNC1CC1 (relative stereo) [Example 13, (3S)-10-(cis-3-cyclopropylaminomethyl-4-methyl-1-pyrrolidinyl)-9-fluoro-2,3-dihydro-3-methyl-7-oxo-7H-pyrido[1,2,3-d,e][1,4]benzoxazine-6-carboxylic acid]",31,0.008,0.008,0.125,0.031
"C[C@H]1CN(c2c(F)cc3c(=O)c(C(=O)O)cn4c3c2OC[C@@H]4C)C[C@@H]1CNC1CC1 [Example 11, (3S)-10-[(3S,4R)-3-cyclopropylaminomethyl-4-methyl-1-pyrrolidinyl]-9-fluoro-2,3-dihydro-3-methyl-7-oxo-7H-pyrido[1,2,3-d,e][1,4]benzoxazine-6-carboxylic acid]",31,0.008,0.008,0.063,0.016
"C=C1COc2c(N3CC[C@@H](CNC4CC4)C3)c(F)cc3c(=O)c(C(=O)O)cn1c23 [Example 7, 10-[(3S)-3-cyclopropylaminomethyl-1-pyrrolidinyl]-9-fluoro-2,3-dihydro-3-methylene-7-oxo-7H-pyrido[1,2,3-d,e][1,4]benzoxazine-6-carboxylic acid]",63,≦0.008 mg/mL,≦0.008 mg/mL,0.125,0.016
"O=C(O)c1cn2c3c(c(N4CC[C@@H](CNC5CC5)C4)c(F)cc3c1=O)OC[C@@H]2CF [Example 1, (3R)-10-[(3S)-3-cyclopropylaminomethyl-1-pyrrolidinyl]-9-fluoro-3-fluoromethyl-2,3-dihydro-7-oxo-7H-pyrido[1,2,3-d,e][1,4]benzoxazine-6-carboxylic acid]",125,0.016,0.016,0.063,0.032
"CC(=O)OC[C@@H]1COc2c(N3CC[C@@H](CNC4CC4)C3)c(F)cc3c(=O)c(C(=O)O)cn1c23 [Example 5, (3S)-3-acetoxymethyl-10-[(3S)-3-cyclopropylaminomethyl-1-pyrrolidinyl]-9-fluoro-2,3-dihydro-7-oxo-7H-pyrido[1,2,3-d,e][1,4]benzoxazine-6-carboxylic acid]",4000,0.25,0.25,0.25,0.125
"C[C@H]1CN(c2c(F)cc3c(=O)c(C(=O)O)cn4c3c2OC[C@@H]4C)C[C@H]1CNC1CC1 [Example 15, (3S)-10-[(3R,4R)-3-cyclopropylaminomethyl-4-methyl-1-pyrrolidinyl]-9-fluoro-2,3-dihydro-3-methyl-7-oxo-7H-pyrido[1,2,3-d,e][1,4]benzoxazine-6-carboxylic acid]",63,0.031,0.031,0.125,0.063
"O=C(O)c1cn2c3c(c(N4CC[C@H](CNC5CC5)C4)c(F)cc3c1=O)OC[C@@H]2CF [Example 2, (3R)-10-[(3R)-3-cyclopropylaminomethyl-1-pyrrolidinyl]-9-fluoro-3-fluoromethyl-2,3-dihydro-7-oxo-7H-pyrido[1,2,3-d,e][1,4]benzoxazine-6-carboxylic acid]",250,0.031,0.016,0.25,0.125
"C[C@@H]1CN(c2c(F)cc3c(=O)c(C(=O)O)cn4c3c2OC[C@@H]4C)C[C@@H]1CNC1CC1 [Example 14, (3S)-10-[(3S,4S)-3-cyclopropylaminomethyl-4-methyl-1-pyrrolidinyl]-9-fluoro-2,3-dihydro-3-methyl-7-oxo-7H-pyrido[1,2,3-d,e][1,4]benzoxazine-6-carboxylic acid]",31,0.008,0.008,0.063,≦0.008 mg/mL
"C[C@@H]1CN(c2c(F)cc3c(=O)c(C(=O)O)cn4c3c2OC[C@@H]4CF)C[C@@H]1CNC1CC1 [Example 18, (3R)-10-[(3S,4S)-3-cyclopropylaminomethyl-4-methyl-1-pyrrolidinyl]-9-fluoro-3-fluoromethyl-2,3-dihydro-7-oxo-7H-pyrido[1,2,3-d,e][1,4]benzoxazine-6-carboxylic acid]",63,0.008,0.016,0.063,0.016
"O=C(O)c1cn2c3c(c(N4C[C@H](CNC5CC5)[C@H](F)C4)c(F)cc3c1=O)OC[C@@H]2CF [Example 20, (3R)-10-[(3S,4S)-3-cyclopropylaminomethyl-4-fluoro-1-pyrrolidinyl]-9-fluoro-3-fluoromethyl-2,3-dihydro-7-oxo-7H-pyrido[1,2,3-d.e][1,4]benzoxazine-6-carboxylic acid]",63,0.008,0.016,0.063,0.016
"C[C@H]1COc2c(N3C[C@H](NC4CC4)[C@@H](F)C3)c(F)cc3c(=O)c(C(=O)O)cn1c23 [Example 21, (3S)-10-[(3S,4S)-3-cyclopropylamino-4-fluoro-1-pyrrolidinyl]-9-fluoro-2,3-dihydro-3-methyl-7-oxo-7H-pyrido[1,2,3-d.e][1,4]benzoxazine-6-carboxylic acid]",31,0.016,0.016,0.063,0.016
"C[C@@H]1CN(c2c(F)cc3c(=O)c(C(=O)O)cn4c3c2OC[C@@H]4C)C[C@H]1CNC1CC1 [Example 12, (3S)-10-[(3R,4S)-3-cyclopropylaminomethyl-4-methyl-1-pyrrolidinyl]-9-fluoro-2,3-dihydro-3-methyl-7-oxo-7H-pyrido[1,2,3-d,e][1,4]benzoxazine-6-carboxylic acid]",63,0.016,0.016,0.25,0.063
